# Measurements: patent US4725683A, “Fluorophenoxyphenoxypropionates and derivatives thereof” (The Dow Chemical Company, priority 1985, dated 1988)
# How the values were obtained:
# Format in all cases: in vivo
# Blackgrass = experiment: Postemergent activity
# Method: (§1) Representative compositions of the present invention were evaluated for the postemergence control of species of plants listed in Table A. In these evaluations, pots of the plant species listed in Table A, grown to a height of about 10 cms, were used. […] The spray compositions were made by mixing the active ingredient in acetone to 1/2 the final volume, i.e., twice the final concentration. An equal amount of water was added to the active ingredient/acetone mixture wherein the water contained 0.1 percent by weight of TWEEN® 200 surfactant. The application to the plants was made to the point of run-off and was carried out with conventional spraying equipment. […] Thereafter, the pots were maintained under conditions conducive for plant growth.
# Cheatgrass = experiment: Postemergent activity
# Method: as §1
# Green Foxtail = experiment: Postemergent activity
# Method: as §1
# Barley = experiment: Postemergent activity
# Method: as §1
# Yellow Foxtail = experiment: Postemergent activity
# Method: as §1
# Wheat [1] = experiment: Preemergent activity; conditions: Triticum aestivum, pre-emergence, read-out: Preemergence Control
# How it was run: (§2)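 Test compound was dissolved in acetone at twice the final concentration, then mixed with an equal volume of water containing 0.1% w/w Tween-20. The resulting emulsion was sprayed uniformly at a predetermined rate onto sandy loam seed beds sown with each species. Controls received acetone–Tween-20–water only.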
# Wild Oats [2] = experiment: Preemergent activity; conditions: Avena fatua, pre-emergence, read-out: Preemergence Control
# How it was run: as §2
# Crabgrass = experiment: Preemergent activity
# How it was run: as §2
# Johnson Grass = experiment: Preemergent activity; conditions: Sorghum halepense, pre-emergence, read-out: Preemergence Control
# How it was run: as §2
# Wheat [3] = experiment: Postemergent activity; conditions: Triticum aestivum, post-emergence, 336 h, read-out: % Control
# How it was run: (§3)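 Pots of plants about 10 cm tall sprayed to run-off at 125, 62.5, 31.25, 15.6, 7.8 and 3.9 ppm. Spray: active in acetone mixed with an equal volume of water containing 0.1% TWEEN 200. Growth scored two weeks later on a 0–100 scale (0 no effect, 100 complete kill).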
# Wild Oats [4] = experiment: Postemergent activity; conditions: Avena fatua, post-emergence, 336 h, read-out: % Control
# How it was run: as §3
smiles,measurement,setting,value
"COC(=O)C(C)Oc1ccc(Oc2ccc(Cl)cc2F)cc1 (racemic) [Example 4-Chloro-, 2-[4-(4-chloro-2-fluorophenoxy)phenoxy]propionic acid methyl ester]",% Control,Blackgrass; 1.56 ppm,50%
same,% Control,Blackgrass; 3.1 ppm,50%
same,% Control,Blackgrass; 6.3 ppm,100%
same,% Control,Blackgrass; 12.5 ppm,100%
same,% Control,Blackgrass; 25 ppm,99%
same,% Control,Blackgrass; 50 ppm,100%
same,% Control,Blackgrass; 100 ppm,100%
same,% Control,Cheatgrass; 1.56 ppm,0%
same,% Control,Cheatgrass; 3.1 ppm,0%
same,% Control,Cheatgrass; 6.3 ppm,0%
same,% Control,Cheatgrass; 12.5 ppm,0%
same,% Control,Cheatgrass; 25 ppm,0%
same,% Control,Cheatgrass; 50 ppm,10%
same,% Control,Cheatgrass; 100 ppm,40%
same,% Control,Green Foxtail; 1.56 ppm,95%
same,% Control,Green Foxtail; 3.1 ppm,100%
same,% Control,Green Foxtail; 6.3 ppm,100%
same,% Control,Green Foxtail; 12.5 ppm,100%
same,% Control,Green Foxtail; 25 ppm,100%
same,% Control,Green Foxtail; 50 ppm,100%
same,% Control,Green Foxtail; 100 ppm,100%
same,% Control,Barley; 15.6 ppm,0%
same,% Control,Barley; 31.25 ppm,0%
same,% Control,Barley; 62.5 ppm,0%
same,% Control,Barley; 125 ppm,0%
same,% Control,Barley; 250 ppm,0%
same,% Control,Barley; 500 ppm,50%
same,% Control,Yellow Foxtail; 1.56 ppm,50%
same,% Control,Yellow Foxtail; 3.1 ppm,80%
same,% Control,Yellow Foxtail; 6.3 ppm,100%
same,% Control,Yellow Foxtail; 12.5 ppm,100%
same,% Control,Yellow Foxtail; 25 ppm,100%
same,% Control,Yellow Foxtail; 50 ppm,100%
same,% Control,Yellow Foxtail; 100 ppm,100%
same,plant injury at 70 g/ha,Wheat [1]; 0.07 kgs/hectare,0%
same,plant injury at 140 g/ha,Wheat [1]; 0.14 kgs/hectare,0%
same,plant injury at 280 g/ha,Wheat [1]; 0.28 kgs/hectare,0%
same,plant injury at 560 g/ha,Wheat [1]; 0.56 kgs/hectare,0%
same,plant injury at 1120 g/ha,Wheat [1]; 1.12 kgs/hectare,0%
same,pest or weed control at 70 g/ha,Wild Oats [2]; 0.07 kgs/hectare,0%
same,pest or weed control at 140 g/ha,Wild Oats [2]; 0.14 kgs/hectare,0%
same,pest or weed control at 280 g/ha,Wild Oats [2]; 0.28 kgs/hectare,20%
same,pest or weed control at 560 g/ha,Wild Oats [2]; 0.56 kgs/hectare,50%
same,pest or weed control at 1120 g/ha,Wild Oats [2]; 1.12 kgs/hectare,70%
same,Preemergence Control,Crabgrass; 0.07 kgs/hectare,60%
same,Preemergence Control,Crabgrass; 0.14 kgs/hectare,100%
same,Preemergence Control,Crabgrass; 0.28 kgs/hectare,100%
same,Preemergence Control,Crabgrass; 0.56 kgs/hectare,100%
same,Preemergence Control,Crabgrass; 1.12 kgs/hectare,100%
same,pest or weed control at 70 g/ha,Johnson Grass; 0.07 kgs/hectare,0%
same,pest or weed control at 140 g/ha,Johnson Grass; 0.14 kgs/hectare,0%
same,pest or weed control at 280 g/ha,Johnson Grass; 0.28 kgs/hectare,0%
same,pest or weed control at 560 g/ha,Johnson Grass; 0.56 kgs/hectare,60%
same,pest or weed control at 1120 g/ha,Johnson Grass; 1.12 kgs/hectare,80%
same,plant injury at 15.6 ppm,Wheat [3],0%
same,plant injury at 31.25 ppm,Wheat [3],0%
same,plant injury at 62.5 ppm,Wheat [3],0%
same,plant injury at 125 ppm,Wheat [3],0%
same,plant injury at 250 ppm,Wheat [3],0%
same,plant injury at 500 ppm,Wheat [3],40%
same,pest or weed control at 15.6 ppm,Wild Oats [4],40%
same,pest or weed control at 31.25 ppm,Wild Oats [4],100%
same,pest or weed control at 62.5 ppm,Wild Oats [4],95%
same,pest or weed control at 125 ppm,Wild Oats [4],90%
same,pest or weed control at 250 ppm,Wild Oats [4],100%
same,pest or weed control at 500 ppm,Wild Oats [4],100%
